Converted amounts (≈) assume the structure as drawn.
Legend:
PC-3 cell line = test: solid tumor cell growth inhibition, MTT; assay type: cell-based; settings: Homo sapiens; for IC50: PC-3, 72 h; for inhibition at 16 µg/mL: PC-3, 16 μg/mL compound, 72 h, read-out: IR (cell proliferation inhibition rate)
Procedure: (§1) Hep-2 (laryngeal carcinoma), A549 (human lung cancer), CaES-17 (esophageal cancer cell), PC-3 (prostate cancer), CNE (nasopharyngeal carcinoma cell), and SK-OV-3 (ovarian cancer cell), all of which are purchased from China Center For Type Culture Collection; RKO (human colon adenocarcinoma cell), MGC 803 (human gastric cancer cell), MG63 (osteosarcoma) and U87 MG (malignant glioma cell), all of which are purchased from Fuxiang Bio-tech Co. Ltd., Shanghai, China; PANC-1 (pancreatic cancer), Hep G2 (human liver cancer cell), Becap37 (human breast cancer cell), and Hela (human cervical cancer cell), all of which are donated by Cancer Research Institute of Zhejiang University, China.
(§2) Obtaining 4000 well-growing human solid tumor cells and inoculating them into wells of a 96-well cell culture plate. The culture medium is DMEM High Glucose cell culture medium containing 10% fetal bovine serum. The plate is placed in a carbon dioxide cell incubator (5% CO2) at 37° C. for 24 hours. After adding the 2-substituted oleanolic acid derivatives of different concentrations and mixing uniformly, the plate is placed in a carbon dioxide cell incubator (5% CO2) at 37° C. and incubated for 72 hours. Then the relative number of the living cells is determined by MTT method. In this experiment, the cell proliferation inhibition rate in control group (not treated with any compound) is set as 0%.

SK-OV-3 cell line = test: solid tumor cell growth inhibition, MTT; assay type: cell-based; settings: Homo sapiens; for IC50: SK-OV-3, 72 h; for inhibition at 16 µg/mL: SK-OV-3, 16 μg/mL compound, 72 h, read-out: IR (cell proliferation inhibition rate)
Procedure: as §1, §2

Hela cell line = test: solid tumor cell growth inhibition, MTT; assay type: cell-based; settings: Homo sapiens, 72 h; for IC50: HeLa; for inhibition at 16 µg/mL: Hela, 16 μg/mL compound, read-out: IR (cell proliferation inhibition rate)
Procedure: as §1, §2

RKO cell line = test: solid tumor cell growth inhibition, MTT; assay type: cell-based; settings: Homo sapiens, 72 h; for inhibition at 16 µg/mL: 16 μg/mL compound, read-out: IR (cell proliferation inhibition rate)
Procedure: as §1, §2

CNE cell line = test: solid tumor cell growth inhibition, MTT; assay type: cell-based; settings: Homo sapiens, 72 h; for inhibition at 16 µg/mL: 16 μg/mL compound, read-out: IR (cell proliferation inhibition rate)
Procedure: as §1, §2

MG-63 cell line = test: solid tumor cell growth inhibition, MTT; assay type: cell-based; settings: Homo sapiens; for IC50: MG-63, 72 h; for inhibition at 16 µg/mL: MG-63, 16 μg/mL compound, 72 h, read-out: IR (cell proliferation inhibition rate)
Procedure: as §1, §2

CaES-17 cell line = test: solid tumor cell growth inhibition, MTT; assay type: cell-based; settings: Homo sapiens, CaEs17; for inhibition at 16 µg/mL: CaES-17, 16 μg/mL compound, 72 h, read-out: IR (cell proliferation inhibition rate); for IC50: CaES-17, 72 h
Procedure: as §1, §2

PANC-1 cell line = test: solid tumor cell growth inhibition, MTT; assay type: cell-based; settings: Homo sapiens; for IC50: PANC-1, 72 h; for inhibition at 16 µg/mL: PANC-1, 16 μg/mL compound, 72 h, read-out: IR (cell proliferation inhibition rate)
Procedure: as §1, §2

A549 cell line = test: solid tumor cell growth inhibition, MTT; assay type: cell-based; settings: Homo sapiens; for IC50: A549, 72 h; for inhibition at 16 µg/mL: A549, 16 μg/mL compound, 72 h, read-out: IR (cell proliferation inhibition rate)
Procedure: as §1, §2

MGC 803 cell line = test: solid tumor cell growth inhibition, MTT; assay type: cell-based; settings: Homo sapiens; for inhibition at 16 µg/mL: MGC 803, 16 μg/mL compound, 72 h, read-out: IR (cell proliferation inhibition rate); for IC50: MGC 803, 72 h
Procedure: as §1, §2

Becap37 cell line = test: solid tumor cell growth inhibition, MTT; assay type: cell-based; settings: Homo sapiens; for inhibition at 16 µg/mL: Becap37, 16 μg/mL compound, 72 h, read-out: IR (cell proliferation inhibition rate); for IC50: Becap37, 72 h
Procedure: as §1, §2

U87 MG cell line = test: solid tumor cell growth inhibition, MTT; assay type: cell-based; settings: Homo sapiens, U-87 MG, 72 h; for inhibition at 16 µg/mL: 16 μg/mL compound, read-out: IR (cell proliferation inhibition rate)
Procedure: as §1, §2

Hep-2 cell line = test: solid tumor cell growth inhibition, MTT; assay type: cell-based; settings: Homo sapiens; for IC50: HEp-2, 72 h; for inhibition at 16 µg/mL: Hep-2, 16 μg/mL compound, 72 h, read-out: IR (cell proliferation inhibition rate)
Procedure: as §1, §2

Kasumi-1 cell line = test: leukemia cell growth inhibition, MTT; assay type: cell-based; settings: Homo sapiens; for inhibition at 16 µg/mL: Kasumi-1, 16 μg/mL compound, 72 h, read-out: IR (cell proliferation inhibition rate); for IC50: Kasumi-1, 72 h
Description: (§3) Leukemia cell lines: leukemia cell lines: K562/adr (drug-resistant, chronic myeloid leukemia, CML), NB4 (acute promyelocytic leukemia, AML), Kasumi-1 (acute myeloid leukemia M2 type, AML-M2), Jurkat (acute lymphoblastic leukemia, ALL), all of which are donated by Cancer Research Institute of Zhejiang University, China; and H9 (acute lymphoblastic leukemia, ALL), which is purchased from China Center for Type Culture Collection (CCTCC).
(§4) Obtaining 6000 well-growing leukemia cells and inoculating them into wells of a 96-well cell culture plate. The culture medium is the 1640 cell culture medium containing 10% fetal bovine serum. After adding the 2-substituted oleanolic acid derivatives of different concentrations and mixing uniformly, placing the plate in a carbon dioxide cell incubator (5% CO2) at 37° C. and incubated for 72 hours. Then the relative number of viable cells is determined by MTT method. In this experiment, cell proliferation inhibition rate in control group (not treated with any compound) is set as 0%.

Jurkat cell line = test: leukemia cell growth inhibition, MTT; assay type: cell-based; settings: Homo sapiens, 72 h; for inhibition at 16 µg/mL: 16 μg/mL compound, read-out: IR (cell proliferation inhibition rate)
Description: as §3, §4

NB4 cell line = test: leukemia cell growth inhibition, MTT; assay type: cell-based; settings: Homo sapiens, NB-4; for inhibition at 16 µg/mL: NB4, 16 μg/mL compound, 72 h, read-out: IR (cell proliferation inhibition rate); for IC50: NB4, 72 h
Description: as §3, §4

K562/adr cell line = test: leukemia cell growth inhibition, MTT; assay type: cell-based; settings: Homo sapiens, 72 h; for IC50: K562/Adr; for inhibition at 16 µg/mL: K562/adr, 16 μg/mL compound, read-out: IR (cell proliferation inhibition rate)
Description: as §3, §4

H9 cell line = test: leukemia cell growth inhibition, MTT; assay type: cell-based; settings: Homo sapiens; for IC50: H9, 72 h; for inhibition at 16 µg/mL: H9, 16 μg/mL compound, 72 h, read-out: IR (cell proliferation inhibition rate)
Description: as §3, §4

Hep G2 cell line = test: solid tumor cell growth inhibition, MTT; assay type: cell-based, human; settings: Homo sapiens; for inhibition at 16 µg/mL: HepG2, 72 h, Hep G2, 16 μg/mL compound, 72 h, read-out: IR (cell proliferation inhibition rate); for IC50: HepG2, Hep G2, 72 h
Procedure: as §1, §2

RPMI8226 cell line = test: multiple myeloma cell growth inhibition, MTT; assay type: cell-based; settings: Homo sapiens, RPMI-8226; for inhibition at 16 µg/mL: RPMI8226, 16 μg/mL compound, 72 h, read-out: IR (cell proliferation inhibition rate); for IC50: RPMI8226, 72 h
Procedure: Multiple myeloma cell lines: RPMI8226 (multiple myeloma), purchased from Fuxiang Bio-tech Co. Ltd., Shanghai, China.
Obtaining 6000 well-growing cells as above and inoculating them into wells of a 96-well cell culture plate. The culture medium is the 1640 cell culture medium containing 10% fetal bovine serum. After adding the 2-substituted oleanolic acid derivatives of different concentrations and mixing uniformly, placing the plate in a carbon dioxide cell incubator (5% CO2) at 37° C. and incubated for 72 hours. Then the relative number of viable cells is determined by MTT method. In this experiment, cell proliferation inhibition rate in control group (not treated with any compound) is set as 0%.

Compound	IC50 (PC-3 cell line)	inhibition at 16 µg/mL (PC-3 cell line)	IC50 (SK-OV-3 cell line)	inhibition at 16 µg/mL (SK-OV-3 cell line)	IC50 (Hela cell line)	inhibition at 16 µg/mL (Hela cell line)	inhibition at 16 µg/mL (RKO cell line)	IC50 (RKO cell line)	inhibition at 16 µg/mL (CNE cell line)	IC50 (CNE cell line)	IC50 (MG-63 cell line)	inhibition at 16 µg/mL (MG-63 cell line)	inhibition at 16 µg/mL (CaES-17 cell line)	IC50 (CaES-17 cell line)	IC50 (PANC-1 cell line)	inhibition at 16 µg/mL (PANC-1 cell line)	IC50 (A549 cell line)	inhibition at 16 µg/mL (A549 cell line)	inhibition at 16 µg/mL (MGC 803 cell line)	IC50 (MGC 803 cell line)	further results
CC1(C)CC[C@]2(C(=O)O)CC[C@]3(C)C(=CC[C@@H]4[C@@]5(C)CC(C(=O)NCCN6CCCC6)C(=O)C(C)(C)[C@@H]5CC[C@]43C)[C@@H]2C1 (some centres unmarked) [BS-OA-105]	> 16 µg/mL	18.4%	> 16 µg/mL	5%	7.29 µg/mL (≈ 12.3 µM)	68.1%	8.6%	> 16 µg/mL	54.5%	10.6 µg/mL (≈ 17.8 µM)	12.6 µg/mL (≈ 21.1 µM)	54.6%	45%	18.9 µg/mL (≈ 31.7 µM)	> 16 µg/mL	16.9%	> 16 µg/mL	24%	29.2%	> 16 µg/mL	inhibition at 16 µg/mL (Becap37 cell line): 43.7%; IC50 (Becap37 cell line): > 16 µg/mL; inhibition at 16 µg/mL (U87 MG cell line): 61.7%; IC50 (U87 MG cell line): 2.31 µg/mL (≈ 3.88 µM); IC50 (Hep-2 cell line): > 16 µg/mL; inhibition at 16 µg/mL (Hep-2 cell line): 28.4%; inhibition at 16 µg/mL (Kasumi-1 cell line): 36.6%; IC50 (Kasumi-1 cell line): > 16 µg/mL; inhibition at 16 µg/mL (Jurkat cell line): 37.5%; IC50 (Jurkat cell line): > 16 µg/mL; inhibition at 16 µg/mL (NB4 cell line): 74.7%; IC50 (NB4 cell line): 10.6 µg/mL (≈ 17.8 µM); IC50 (K562/adr cell line): 6.52 µg/mL (≈ 11 µM); inhibition at 16 µg/mL (K562/adr cell line): 85%; IC50 (H9 cell line): > 16 µg/mL; inhibition at 16 µg/mL (H9 cell line): 31.5%; inhibition at 16 µg/mL (Hep G2 cell line): 29.5%; IC50 (Hep G2 cell line): > 16 µg/mL; inhibition at 16 µg/mL (RPMI8226 cell line): 81.8%; IC50 (RPMI8226 cell line): 10.5 µg/mL (≈ 17.7 µM)
CCN(CC)CCNC(=O)C1C[C@@]2(C)C(CC[C@]3(C)C2CC=C2C4CC(C)(C)CC[C@]4(C(=O)O)CC[C@]23C)C(C)(C)C1=O (some centres unmarked) [BS-OA-106]	> 16 µg/mL	-6.4%	> 16 µg/mL	-17%	> 16 µg/mL	34.6%	5.3%	> 16 µg/mL	44.3%	> 16 µg/mL	> 16 µg/mL	4.9%	10%	> 16 µg/mL	> 16 µg/mL	16.9%	> 16 µg/mL	31.5%	13.4%	> 16 µg/mL	inhibition at 16 µg/mL (Becap37 cell line): 27.5%; IC50 (Becap37 cell line): > 16 µg/mL; inhibition at 16 µg/mL (U87 MG cell line): 7.2%; IC50 (U87 MG cell line): > 16 µg/mL; IC50 (Hep-2 cell line): > 16 µg/mL; inhibition at 16 µg/mL (Hep-2 cell line): 3.8%; inhibition at 16 µg/mL (Kasumi-1 cell line): 43%; IC50 (Kasumi-1 cell line): > 16 µg/mL; inhibition at 16 µg/mL (Jurkat cell line): 43.2%; IC50 (Jurkat cell line): > 16 µg/mL; inhibition at 16 µg/mL (NB4 cell line): 86.6%; IC50 (NB4 cell line): 7.32 µg/mL (≈ 12.3 µM); IC50 (K562/adr cell line): 4.12 µg/mL (≈ 6.9 µM); inhibition at 16 µg/mL (K562/adr cell line): 98.2%; IC50 (H9 cell line): > 16 µg/mL; inhibition at 16 µg/mL (H9 cell line): 44.6%; inhibition at 16 µg/mL (Hep G2 cell line): 33.6%; IC50 (Hep G2 cell line): > 16 µg/mL; inhibition at 16 µg/mL (RPMI8226 cell line): 68.3%; IC50 (RPMI8226 cell line): 12.2 µg/mL (≈ 20.5 µM)
